In ChEMBL document CHEMBL1127896, “Synthesis and pharmacological characterization of ABT-200: a putative novel antidepressant combining potent -2 antagonism with moderate NE uptake inhibition” (Bioorg Med Chem Lett, 1994):

Assays:
[1] = target: T1, Adrenergic receptor alpha-2 (Rattus norvegicus, UniProt P22086+P19328+P22909); test: Evaluated for its presynaptic Alpha-2 adrenergic receptor antagonistic activity against rat vas deferens using clonidine as the control expressed as slope; assay type: functional, tissue-based
T1 sequence (P22086 whole entry): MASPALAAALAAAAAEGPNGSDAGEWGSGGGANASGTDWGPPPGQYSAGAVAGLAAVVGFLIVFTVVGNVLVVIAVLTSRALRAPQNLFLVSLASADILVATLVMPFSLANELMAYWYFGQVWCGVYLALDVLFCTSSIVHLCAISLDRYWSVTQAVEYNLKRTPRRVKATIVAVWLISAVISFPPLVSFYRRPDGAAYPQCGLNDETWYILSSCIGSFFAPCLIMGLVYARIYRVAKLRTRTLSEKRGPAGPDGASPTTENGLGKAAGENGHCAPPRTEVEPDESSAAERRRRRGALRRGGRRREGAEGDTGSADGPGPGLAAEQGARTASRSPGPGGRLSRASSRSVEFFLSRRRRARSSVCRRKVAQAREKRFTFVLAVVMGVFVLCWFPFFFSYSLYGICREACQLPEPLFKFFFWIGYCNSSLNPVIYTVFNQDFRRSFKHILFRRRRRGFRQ
T1 sequence (P19328 whole entry): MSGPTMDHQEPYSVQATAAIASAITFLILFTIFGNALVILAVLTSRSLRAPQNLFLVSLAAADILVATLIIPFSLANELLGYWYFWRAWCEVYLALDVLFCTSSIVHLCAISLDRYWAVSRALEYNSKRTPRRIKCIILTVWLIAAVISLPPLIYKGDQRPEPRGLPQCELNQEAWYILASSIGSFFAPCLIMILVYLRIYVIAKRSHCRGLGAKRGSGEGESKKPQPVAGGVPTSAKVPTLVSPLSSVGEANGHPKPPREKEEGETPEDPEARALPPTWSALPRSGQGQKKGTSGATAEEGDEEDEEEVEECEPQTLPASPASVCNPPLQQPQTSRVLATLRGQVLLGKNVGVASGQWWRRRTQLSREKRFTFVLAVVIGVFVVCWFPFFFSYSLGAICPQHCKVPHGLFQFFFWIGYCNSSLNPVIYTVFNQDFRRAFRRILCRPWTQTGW
T1 sequence (P22909 whole entry): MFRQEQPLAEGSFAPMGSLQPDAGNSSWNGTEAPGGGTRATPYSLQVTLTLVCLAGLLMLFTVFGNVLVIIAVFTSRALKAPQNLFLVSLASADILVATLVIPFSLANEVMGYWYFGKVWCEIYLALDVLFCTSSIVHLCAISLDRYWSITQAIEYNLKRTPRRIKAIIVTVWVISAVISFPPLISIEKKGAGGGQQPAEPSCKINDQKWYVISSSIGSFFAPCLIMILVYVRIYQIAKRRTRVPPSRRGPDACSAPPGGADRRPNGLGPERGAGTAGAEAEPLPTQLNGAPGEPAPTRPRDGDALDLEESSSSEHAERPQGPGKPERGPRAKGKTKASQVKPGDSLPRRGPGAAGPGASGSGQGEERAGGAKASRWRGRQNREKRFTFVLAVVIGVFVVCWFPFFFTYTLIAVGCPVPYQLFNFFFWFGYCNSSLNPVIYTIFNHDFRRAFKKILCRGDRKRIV

[2] = target: T2, Adrenergic receptor alpha-1 (Rattus norvegicus, UniProt P15823+P23944+P43140); test: In vitro binding affinity at Alpha-1 adrenergic receptor by radioligand binding assay using [3H]prazosin; assay type: protein assay
T2 sequence (P15823 whole entry): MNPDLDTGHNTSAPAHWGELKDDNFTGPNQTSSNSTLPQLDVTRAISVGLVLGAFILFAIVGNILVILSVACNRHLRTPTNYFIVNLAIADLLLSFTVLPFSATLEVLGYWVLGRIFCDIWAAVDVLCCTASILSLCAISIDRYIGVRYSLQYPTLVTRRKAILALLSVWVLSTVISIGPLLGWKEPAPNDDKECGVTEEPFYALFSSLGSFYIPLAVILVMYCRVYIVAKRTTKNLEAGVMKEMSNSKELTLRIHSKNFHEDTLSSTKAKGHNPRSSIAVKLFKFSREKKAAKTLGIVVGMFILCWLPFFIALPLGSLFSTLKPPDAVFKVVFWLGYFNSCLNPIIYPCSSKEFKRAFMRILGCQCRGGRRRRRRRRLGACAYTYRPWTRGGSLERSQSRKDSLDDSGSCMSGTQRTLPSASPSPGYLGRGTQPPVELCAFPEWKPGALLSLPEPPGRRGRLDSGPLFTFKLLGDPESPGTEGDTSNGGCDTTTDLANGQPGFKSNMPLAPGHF
T2 sequence (P23944 whole entry): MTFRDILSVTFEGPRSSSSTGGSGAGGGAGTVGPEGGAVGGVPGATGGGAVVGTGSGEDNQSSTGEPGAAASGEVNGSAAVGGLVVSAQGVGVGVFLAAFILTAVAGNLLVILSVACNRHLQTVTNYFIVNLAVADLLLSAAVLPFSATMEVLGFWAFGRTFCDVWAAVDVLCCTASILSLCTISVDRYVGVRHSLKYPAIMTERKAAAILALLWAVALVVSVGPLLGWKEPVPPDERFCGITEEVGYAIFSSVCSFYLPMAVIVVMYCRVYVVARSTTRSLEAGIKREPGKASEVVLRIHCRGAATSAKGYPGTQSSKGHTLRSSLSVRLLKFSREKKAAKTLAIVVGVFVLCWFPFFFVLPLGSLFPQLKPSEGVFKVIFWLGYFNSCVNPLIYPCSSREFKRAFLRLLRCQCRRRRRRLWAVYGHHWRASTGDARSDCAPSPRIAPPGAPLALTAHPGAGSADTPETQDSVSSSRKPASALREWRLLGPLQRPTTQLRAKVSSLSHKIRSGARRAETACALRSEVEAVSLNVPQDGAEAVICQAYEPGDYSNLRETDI
T2 sequence (P43140 whole entry): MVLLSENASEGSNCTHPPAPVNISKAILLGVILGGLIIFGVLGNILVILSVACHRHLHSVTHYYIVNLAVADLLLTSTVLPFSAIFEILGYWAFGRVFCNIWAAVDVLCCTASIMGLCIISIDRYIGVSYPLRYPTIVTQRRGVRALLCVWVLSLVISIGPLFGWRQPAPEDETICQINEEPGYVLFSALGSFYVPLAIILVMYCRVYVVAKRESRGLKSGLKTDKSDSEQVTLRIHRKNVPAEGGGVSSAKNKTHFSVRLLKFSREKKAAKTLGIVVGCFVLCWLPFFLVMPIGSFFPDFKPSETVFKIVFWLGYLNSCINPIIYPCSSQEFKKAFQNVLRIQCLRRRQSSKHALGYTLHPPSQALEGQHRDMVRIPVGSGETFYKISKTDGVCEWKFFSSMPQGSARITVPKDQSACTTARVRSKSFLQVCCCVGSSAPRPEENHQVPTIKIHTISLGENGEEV

[3] = target: T1, Adrenergic receptor alpha-2; test: In vitro binding affinity at Alpha-2 adrenergic receptor in rat cortex by radioligand binding assay using [3H]rauwolscine
Rattus norvegicus = species: Rattus norvegicus; test: Concentration required for its norepinephrine reuptake inhibitory activity in synaptosomal rat hyphalamic preparations; assay type: functional

Compound | pA2 [1] | Ki [2] [nM] | Ki [3] [nM] | IC50 (Rattus norvegicus; Rattus norvegicus) [nM] | IC50 (Rattus norvegicus) [nM]
c1ccc([C@@H]2CCN(C[C@@H]3CCCc4c3ccc3c4OCO3)C2)cc1 | 7.91 | 47.4 | 0.5 | 1700 | –
c1ccc([C@H]2CCN(C[C@@H]3CCCc4c3ccc3c4OCO3)C2)cc1 | 7.78 | 106 | 0.428 | – | 3110
c1ccc([C@@H]2CCN(C[C@H]3CCCc4c3ccc3c4OCO3)C2)cc1 | 6.78 | 104 | 2.08 | 636 | –
c1ccc([C@H]2CCN(C[C@H]3CCCc4c3ccc3c4OCO3)C2)cc1 | 6.65 | 189 | 4.56 | 1450 | –
c1ccc(C2CCN(CC3CCCc4c3ccc3c4OCO3)C2)cc1 (stereo in doubt; 1a/b) | 7.68 | 112 | 1.23 | – | 841
c1ccc(C2CCN(CC3CCCc4c3ccc3c4OCO3)C2)cc1 (stereo in doubt; 6a/b) | 7.84 | 75.9 | 0.708 | – | 1320
CN(C)CCCN1c2ccccc2CCc2ccccc21 [IMIPRAMINE] | – | – | 255 | 105 | –
